# Legend:
# Test in all cases: FRET substrate cleavage by recombinant MMP, inhibition by activity-based probe
# Format in all cases: biochemical
# MMP1 = molecular target: T1, MMP1 (Homo sapiens, UniProt P03956); set-up: purchased Peprotech; conditions: FRET substrate PEPDAB008 10 μM, read-out: IC50, inhibition of substrate cleavage of active MMP
# T1 sequence (P03956 100-469): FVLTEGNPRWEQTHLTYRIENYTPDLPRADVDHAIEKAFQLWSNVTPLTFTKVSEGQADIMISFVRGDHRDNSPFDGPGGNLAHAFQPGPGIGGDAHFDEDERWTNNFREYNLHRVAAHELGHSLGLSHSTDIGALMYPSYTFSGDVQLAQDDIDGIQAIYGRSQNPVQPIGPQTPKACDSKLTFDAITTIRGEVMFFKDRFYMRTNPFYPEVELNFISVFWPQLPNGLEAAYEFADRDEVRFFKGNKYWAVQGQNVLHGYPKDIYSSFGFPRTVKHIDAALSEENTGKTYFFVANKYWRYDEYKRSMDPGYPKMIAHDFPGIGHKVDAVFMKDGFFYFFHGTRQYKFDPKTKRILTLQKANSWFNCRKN
# From the text: (§1) The binding of an activity-based probe, e.g., HxBP-Bt, to the active site of an MMP (as shown in FIG. 1A) would effectively reduce (or inhibit) the ability of such MMP to cleave its substrate. […] This correlation should also provide an IC50 value to measure the sensitivity/potency of the MAMBI system to bind, and thereby quantify, active MMPs. […] Fluorescence resonance energy transfer (FRET) technique is used to determine if a substrate is cleaved by pre-labeling two parts of a substrate molecule with a donor chromophore and an acceptor chromophore, respectively, and measuring the energy transfer efficiency from the donor to the acceptor chromophore to determine if two fluorophores are within a certain distance of each other, i.e. the substrate is intact and uncleaved. Here, HxBP-Bt bound MMP samples were mixed with chromophore-labeled substrate peptides in 384-well OptiPlates® at 37° C. using timelapse fluorimetry in the Spectromax® M3 and M2e fluorimeters (Molecular Devices). The fluorescence was monitored by plate reader. In general, readings measured fluorescence every 20 minutes for roughly five hours and the reported rate of increase in fluorescence was calculated from fitting a linear portion of this increase including at least 4 data points and subtracting the average increase in background, protease-free conditions. […] Reaction velocities were calculated from linear reaction periods from raw fluorescence value time courses. […] Relative rates of FRET substrate cleavage among samples with the addition of HxBP-Bt were quantified and compared with the rates without HxBP-Bt. Activities of recombinant MMPs 1, 7, 8, 12 and 13, in the presence or absence of HxBP-Bt probe, were characterized with […]008 (Dabcyl-[…]); MMPs 2 and 9 with […]011 (Dabcyl-[…]) and MMPs 3 and 10 with […]052 (Dabcyl-[…]). […] These IC50 values were used to estimate binding off-rates in the computational model. IC50 of the inhibitor was calculated by fitting the resulting dose-dependent data with the PRISM software (GraphPad, USA)
# MMP3 = MMP3 (Homo sapiens, UniProt P08254); set-up: purchased Peprotech; conditions: FRET substrate PEPDAB052 10 μM, read-out: IC50, inhibition of substrate cleavage of active MMP
# Chain of MMP3 (P08254 100-477): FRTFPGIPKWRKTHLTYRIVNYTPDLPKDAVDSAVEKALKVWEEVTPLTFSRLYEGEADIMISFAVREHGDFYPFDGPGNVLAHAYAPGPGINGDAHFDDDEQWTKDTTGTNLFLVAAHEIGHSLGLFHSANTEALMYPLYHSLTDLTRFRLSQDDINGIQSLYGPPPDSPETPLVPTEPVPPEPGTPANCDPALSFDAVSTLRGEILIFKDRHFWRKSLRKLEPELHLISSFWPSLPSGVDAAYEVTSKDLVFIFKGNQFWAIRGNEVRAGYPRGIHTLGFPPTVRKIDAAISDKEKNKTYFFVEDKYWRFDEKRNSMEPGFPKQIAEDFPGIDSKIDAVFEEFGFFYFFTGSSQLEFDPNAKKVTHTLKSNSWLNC
# From the text: as §1
# MMP2 = molecular target: T2, MMP2 (Homo sapiens, UniProt P08253); set-up: purchased Peprotech; conditions: FRET substrate PEPDAB011 10 μM, read-out: IC50, inhibition of substrate cleavage of active MMP
# T2 sequence (P08253 110-660): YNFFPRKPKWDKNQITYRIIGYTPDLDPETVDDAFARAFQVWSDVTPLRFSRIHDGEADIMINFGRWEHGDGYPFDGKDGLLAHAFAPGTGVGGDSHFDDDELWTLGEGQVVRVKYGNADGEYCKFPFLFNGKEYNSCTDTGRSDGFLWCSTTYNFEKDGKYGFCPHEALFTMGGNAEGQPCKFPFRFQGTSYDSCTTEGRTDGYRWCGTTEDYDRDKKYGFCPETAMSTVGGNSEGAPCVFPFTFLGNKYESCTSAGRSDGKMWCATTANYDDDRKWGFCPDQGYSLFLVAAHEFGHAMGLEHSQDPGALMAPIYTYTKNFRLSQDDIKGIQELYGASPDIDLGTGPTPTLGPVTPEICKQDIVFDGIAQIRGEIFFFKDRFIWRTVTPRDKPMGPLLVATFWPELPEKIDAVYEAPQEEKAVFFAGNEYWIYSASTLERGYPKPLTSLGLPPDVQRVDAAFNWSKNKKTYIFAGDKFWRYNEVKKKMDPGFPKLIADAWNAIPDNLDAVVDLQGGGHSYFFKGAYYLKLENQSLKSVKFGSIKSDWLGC
# From the text: as §1
# MMP10 = MMP10 (Homo sapiens, UniProt P09238); conditions: FRET substrate PEPDAB052 10 μM, read-out: IC50, inhibition of substrate cleavage of active MMP
# Chain of MMP10 (P09238 99-476): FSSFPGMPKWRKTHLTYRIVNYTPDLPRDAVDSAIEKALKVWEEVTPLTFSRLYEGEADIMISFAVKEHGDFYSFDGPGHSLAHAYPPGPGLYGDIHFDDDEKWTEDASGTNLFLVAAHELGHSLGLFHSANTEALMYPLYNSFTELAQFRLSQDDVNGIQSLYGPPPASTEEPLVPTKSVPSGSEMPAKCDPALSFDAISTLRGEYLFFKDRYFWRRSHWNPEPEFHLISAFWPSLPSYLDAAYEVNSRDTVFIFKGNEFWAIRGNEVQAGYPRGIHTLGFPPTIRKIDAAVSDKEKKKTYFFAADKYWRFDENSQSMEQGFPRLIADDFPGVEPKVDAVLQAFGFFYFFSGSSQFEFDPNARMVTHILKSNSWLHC
# From the text: as §1
compound,measurement,setting,value
"CC(C)CC(C(=O)NC(Cc1ccc(C(=O)c2ccccc2)cc1)C(=O)NCCOCCOCCOCC(=O)NCC(C)(C)SSC(C)(C)CNC(=O)CCCCC1SCC2NC(=O)NC21)C(O)C(=O)NO (stereo not shown) [HxBP-Bt, biotin-tagged hydroxamate benzophenone (HxBP-Bt) probe]",IC50,MMP1,2.1 nM
same,IC50,MMP3,61 nM
same,IC50,MMP2,3.3 nM
same,IC50,MMP10,29 nM

# Source: patent publication US11408885B2, “Compositions and multiplex assays for characterizing active proteases and their inhibitors” (Massachusetts Institute of Technology, priority 2017, dated 2022)
